Laboratory results as given in patent US20100111965A1, “COMBINATION THERAPY” (FUSION ANTIBODIES LIMITED, priority 2006, published 2010).
Several values for one entry are separate records, joined by “and”; a condition that tells them apart may be missing. Identical values can stand only once.

How the values were obtained:
HCT116 = assay: RT-PCR of AREG RNA in HCT116 cells after chemotherapy; assay type: cell-based, human; conditions: 48 h after treatment, 7.5 μM
Procedure: FIG. 1B illustrates analysis of AREG and beta actin RNA expression in HCT116 +/+ with/without a 48 hour CPT11 treatment. RNA levels were analyzed following 35 cycles of PCR to determine relative differences in expression between treated and untreated samples;
(§1) FIG. 6 illustrates AREG upregulation following chemotherapeutic challenge in A) HT29, B) HCT116 and C) MDA-MB231 cells. Cells were treated with/without chemotherapy for 48 hours. RT-PCR was performed with 1 μg of total RNA using primer pairs specific for the human AREG gene or GAPDH. The PCR products were separated on 1.5% agarose gel electrophoresis and visualized by ethidium bromide staining.
Cells in a log phase of growth were seeded into T75 flask at ˜20% confluence and incubated overnight to allow adherence to the plate. […] Chemotherapy was substituted with saline in control flasks. After different time exposure to chemotherapy the cells were harvested, washed 3 times in PBS and total RNA was isolated using the RNA TAT-60 reagent according to the manufacturer instructions. […]
Semi quantitative RT-PCR was performed using a PTC 225 Gradient Cycler (MJ Research Incorporated. The PCR mixture, in a final volume of 25 μL, contains 12.5 μL of 2× Biomix (Bioline, UK), 2 μL of primers (10 μmol/L), 1 μL of cDNA and 9.5 μL of dH2O). […]

H460 lung cancer cells = assay: RT-PCR of AREG RNA in H460 lung cancer cells after chemotherapy; assay type: cell-based; conditions: 48 hour treatment
Procedure: FIG. 5 illustrates analysis of AREG and beta actin RNA expression in H460 lung cancer cells with/without either a 48 hour CPT11 treatment or 5-Fu treatment. RNA levels were analyzed following 35 cycle of PCR to determine relative differences in expression between treated and untreated samples.
(§2) Cells in a log phase of growth were seeded into T75 flask at ˜20% confluence and incubated overnight to allow adherence to the plate. […] Chemotherapy was substituted with saline in control flasks. After different time exposure to chemotherapy the cells were harvested, washed 3 times in PBS and total RNA was isolated using the RNA TAT-60 reagent according to the manufacturer instructions.
(§3) Reverse transcription was performed with 2.5 μg of RNA using a High Capacity cDNA Archive kit (Applied Biosystem) according to the instruction of the manufacturer.
(§4) Semi quantitative RT-PCR was performed using a PTC 225 Gradient Cycler (MJ Research Incorporated. The PCR mixture, in a final volume of 25 μL, contains 12.5 μL of 2× Biomix (Bioline, UK), 2 μL of primers (10 μmol/L), 1 μL of cDNA and 9.5 μL of dH2O). PCR conditions were initial denaturation step of 95 C for 10 minutes, followed by 35 cycles of 95° C. for 30 sec for denaturation; as annealing step 55° C. for 30 sec; and extension at 72° C. for 90 sec, with a final extension of 72° C. for 10 minutes. […]

[1] = tested on: MDA-MB231 breast carcinoma cell line; assay: RT-PCR of AREG mRNA in MDA-MB231 cells after chemotherapy; assay type: cell-based, human; conditions: IC50 dose, 48 hours
Procedure: as §1
For Example 2, Total RNA was isolated from cells following the RNA STAT-60 manufacturer's protocol (Biogenesis, Poole, U.K.). RT-PCR was performed with 1 μg of total cell RNA using a Promega ImProm-II™ Reverse Transcription System (Promega, Southhampton, UK). PCR was performed using primer pairs specific for human AREG (Forward 5′-[…]-3′(SEQ ID No:19), Reverse 5′-[…]-3′ (SEQ ID No:20)), human HB-EGF (Forward 5′-[…]-3′(SEQ ID No:21), Reverse 5′-[…]-3′(SEQ ID No:22)), human GAPDH as a control (Forward 5′[…]-3′(SEQ ID No:23), Reverse 5′ […]-3′(SEQ ID NO:24)) and human Beta-actin as a control (Forward 5′-[…]-3′(SEQ ID No:25), Reverse 5′-[…]-3′(SEQ ID No:26)).
The PCR products were separated on 1.5% agarose gel and visualized by ethidium bromide staining.

[2] = tested on: HCT116+/+ cells (In Vivo); assay: Microarray analysis of EGF-family mRNA in HCT116 xenograft tumours after chemotherapy; set-up: species or system human; conditions: for EGF (Epidermal Growth factor) fold change, microarray: drug treated against untreated control
Procedure: 6-8 week old female SCID mice were implanted with 2×10^6 HCT116+/+ human colorectal adenocarcinoma cells into each flank. HCT116 cells in a log phase of growth were harvested, washed in PBS and resuspended in HBSS. They were mixed with equal volumes of matrigel to give a final concentration of 5×10^6 cells/ml. Mice were randomly separated into treatment groups on day 5 after implantation and treated with different doses of chemotherapy. […] All drugs were administered through a bolus injection. Animals were sacrificed at various time points and tumours were removed for analysis
Approximately 10 μg total RNA was isolated from tumour cells and was used as the starting material for preparation of probes. The microarray analysis was carried using an Affymetrix U133 plus 2.0 GeneChip®. Probes were prepared as per the manufacturers recommendations.
After RNA extraction, samples were reverse transcribed into cDNA which was then purified on a column prior to labelling. The probes were then amplified and labelled using Oligo(dT)-primed in vitro transcription generating high-yield, biotinylated targets from the 3′-end. […] For the next stage the fragmented cRNA was hybridised to the array for 16 hours at 45° C. Following this the array was washed and stained with streptavidin-phycoerythrin (SAPE) using a fluidics station and scanned using a GeneChip® Scanner 3000. Stained images were then analysed.
Initially the data was scaled using the Affymetrix® GCOS (Genechip® Operating System) software, to assess quality metrics. The data was then normalized against a control sample. After normalisation the data was filtered removing all genes where the noise level obscured signal and were fold change was […] 2-fold. Finally a confidence filter where the t-test p-value were used to filter the genes to derive lists of statistically robust data.
Each treatment type and timepoint was carried out in triplicate and statistics and filtering were applied to the whole data set from each condition.
A xenograft study was set up to examine the genetic response to 2 different chemotherapeutic drugs 24 and 48 hours after treatment. Each mouse was implanted with equal volumes of HCT116 cells and each condition was performed in triplicate.
RNA isolated from tumours in each of the 12 mice was subjected to microarray analysis to measure mRNA expression levels. Fold change values for drug treated against untreated control is presented.

RKO +/+ = assay: Semi quantitative RT-PCR of AREG RNA in RKO cells after chemotherapy; assay type: cell-based, human; conditions: 48 h after treatment, 7.5 μM
Procedure: FIG. 1A illustrates analysis of AREG and beta actin RNA expression in RKO +/+ with/without either a 48 hour CPT11 treatment or 5-Fu treatment. RNA levels were analyzed following 35 cycle of PCR to determine relative differences in expression between treated and untreated samples;
as §2, §3, §4

[3] = HCT116+/+ xenograft, 70 mg/kg bolus, 24 h, vs untreated control
[4] = HCT116+/+ xenograft, 70 mg/kg bolus, 24 h, vs untreated control, 70 mg/kg
[5] = HCT116 xenograft, treated by 5-FU, time not stated

## O=c1[nH]cc(F)c(=O)[nH]1 [5-FU, 5-Fluorouracil]
HCT116
  AREG RNA expression (RT-PCR): upregulation
H460 lung cancer cells
  AREG RNA expression (RT-PCR, 35 cycles): enhanced expression of AREG
[1]
  AREG mRNA expression (RT-PCR): up-regulation
[2]; HCT116+/+ xenograft, 70 mg/kg bolus, 24 h
  EGF (Epidermal Growth factor) fold change, microarray: −2.4 fold
[2]; [3]
  NRG3 fold change, microarray: −2.1 fold
  NRG4 fold change, microarray: −1.1 fold
[2]; [4]
  HB-EGF (Heparin-Binding EGF-like growth factor) fold change, microarray: 1.6 fold and 3.1 fold
  TGF alpha (Transforming Growth factor alpha) fold change, microarray: 1.3 fold and 1.8 fold
[2]; HCT116+/+ xenograft, 70 mg/kg bolus, 48 h
  EGF (Epidermal Growth factor) fold change, microarray: −3.8 fold
[2]; HCT116+/+ xenograft, 70 mg/kg bolus, 48 h, vs untreated control
  NRG4 fold change, microarray: −1.8 fold
[2]; HCT116 xenograft, 70 mg/kg, after 48 hours
  fold change values for AREG mRNA expression, treated against untreated controls: 2.1 fold
[2]; [5]
  HB-EGF regulation in micro-array analysis: up-regulation
  TGF regulation in micro-array analysis: up-regulation
RKO +/+
  AREG RNA expression (RT-PCR): upregulation
